Tests used:
[1] = target: T1, PIP4K2A (full length protein, SignalChem) (Homo sapiens, UniProt P48426); test: Kinase Assay PIP4K2 A (Sprint); ADP-Glo biochemical assay; conditions: Table 2; compounds listed under IC50 range headings
T1 construct: 4 nM PIP4K2A (full length protein, SignalChem); purchased SignalChem
T1 sequence (P48426 1-406): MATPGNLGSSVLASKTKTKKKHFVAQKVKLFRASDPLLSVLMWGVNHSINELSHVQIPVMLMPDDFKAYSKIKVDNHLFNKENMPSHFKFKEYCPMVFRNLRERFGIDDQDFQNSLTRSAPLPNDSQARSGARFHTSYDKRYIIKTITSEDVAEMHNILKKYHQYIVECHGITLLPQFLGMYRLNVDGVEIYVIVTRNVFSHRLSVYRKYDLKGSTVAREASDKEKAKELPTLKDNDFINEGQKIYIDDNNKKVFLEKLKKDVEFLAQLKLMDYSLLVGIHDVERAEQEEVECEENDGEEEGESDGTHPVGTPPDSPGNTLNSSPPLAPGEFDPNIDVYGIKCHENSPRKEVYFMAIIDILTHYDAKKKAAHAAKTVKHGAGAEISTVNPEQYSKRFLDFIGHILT
Protocol: Dilution series of the compounds were prepared in DMSO at 100 times the final assay concentration (n1=n0/3 in 10 points). The compounds were further diluted to three times the assay concentration in assay buffer (20 mM MOPS pH 7.2, 25 mM magnesium chloride, 0.005% Tween 20). 6 μL of the diluted compounds were added to a 384 well assay plate followed by 9 μL of a mix consisting of 4 nM PIP4K2A (full length protein, SignalChem) and 100 μM PI(5)P diC8 (Tebu-Bio). Enzyme and compounds were pre-incubated at room temperature for 15 min.
Then 3 μL of a solution containing 60 μM ATP (Promega) in assay buffer was added to the wells containing compound and enzyme and mixing was performed by pipetting several times. The reaction was incubated at room temperature for 1 h. Then 18 μL of ADP-Glo™ Reagent (Promega) was added to stop the kinase reaction and deplete the unconsumed ATP, mixing was performed by pipetting several times. The plate was incubated at room temperature for 40 min before addition of 36 μL of Kinase Detection Reagent (Promega) to convert ADP to ATP and introduce luciferase and luciferin to detect ATP. The reaction was incubated at room temperature for 40 min before the luminescence was measured in a in a Victor 3V 1420 multilabel counter (Perkin Elmer).
Percent inhibition of the compounds as compared to dimethyl sulfoxide treated control samples was calculated. Compound concentration versus percent inhibition were fitted to generate IC50 values.

GST tagged PIP4KtypeIIB = target: T2, GST tagged PIP4KtypeIIB (Homo sapiens, UniProt P78356); test: Trans-FI P kinase assay PIP4K2B (PIP4KtypeIIB inhibition assay); type: biochemical; conditions: Table 4; compounds listed under IC50 range headings; 100 uM GTP, 5 nM PIP4KIIB; read-out: Trans-FI P kinase assays: PIP4K2B IC50
T2 construct: made in house; host or cells: E. coli
T2 sequence (P78356 1-416): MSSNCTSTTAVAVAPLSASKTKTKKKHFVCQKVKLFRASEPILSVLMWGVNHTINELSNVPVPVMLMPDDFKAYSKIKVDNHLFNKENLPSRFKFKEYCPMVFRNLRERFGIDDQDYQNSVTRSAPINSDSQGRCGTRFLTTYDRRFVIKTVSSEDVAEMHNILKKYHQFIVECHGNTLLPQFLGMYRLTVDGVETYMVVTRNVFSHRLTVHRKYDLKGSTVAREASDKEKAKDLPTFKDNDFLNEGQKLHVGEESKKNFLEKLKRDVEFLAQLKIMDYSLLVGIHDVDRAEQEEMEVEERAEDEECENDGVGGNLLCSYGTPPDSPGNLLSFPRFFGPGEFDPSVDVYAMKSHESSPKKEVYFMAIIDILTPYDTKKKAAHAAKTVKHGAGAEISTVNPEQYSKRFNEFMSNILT
Excerpt: GST tagged PIP4KtypeIIA and B enzymes were overexpressed in E. Coli and purified to >80% homogeneity. Phosphatidyl inositol-5-phosphate (PI5P, Cat. #850152, Avanti Polar Lipids Inc.) was used as the lipid substrate and phosphatidyl ethanolamine (DOPE 18:1, Cat. #850725, Avanti Polar Lipids Inc.) was used as the carrier lipid for assays. Ultrapure ATP and GTP was purchased from Bellbrooke Labs. ADP Glo reagents were obtained from Promega. Transcreener FI reagent was obtained from Bellbrooke labs.
1. HEPES buffer mix: 200 mM HEPES pH 7.4, 50 mM MgCl2, 0.05% v/v triton×100
2. HNE buffer: 20 mM HEPES, pH 7.4, 100 mM NaCl, 0.5 mM EGTA
3. H:E buffer: 30 mM HEPES, pH 7.4, 1 mM EGTA
GST-tagged PIP4KtypeIIB (3.4 uL, 2.77 mg/mL) was diluted to 5 mL using HNE buffer to yield 5× enzyme stock (25 nM)
Lipid Preparation: In a 10 mL pyrex glass vial, lug of PI5P and lug of DOPE were suspended in 2.5 mL of HEPES buffer mix and 2.5 mL of H:E buffer. The contents were mixed and sonicated for 3 min to yield a translucent lipid stock.
Compound Preparation: Compounds were stored as 5 mM stocks in neat DMSO as room temperature in glass vials. 5 mM stocks were diluted to 2 mM and then serially diluted (3×) in neat DMSO in 96 well polypropylene plates. From the serially diluted stocks, 3 uL was delivered into 250 uL of 25% DMSO (in water) to generate 5× compound stocks. Typically, the highest compound conc. was 24 uM.
The assay volume was kept at 25 uL. To each well of the reaction plate, 10 uL of lipid stock (1:1 ratio PI5P:DOPE) was delivered. This was followed by the addition of 5 uL of compound in 25% DMSO. Then, to each well, 5 uL of 25 nM (5×) typeIIB enzyme was delivered. The contents were mixed well and incubated for 1 h at 27 C. After 1 h, reaction was initiated by adding 5 uL of 500 uM GTP and the contents were mixed well with a multi-channel pipetteman. The final concentration of the reagents are as follows: 50 mM HEPES, pH 7.3, 10 mM MgCl2, 20 mM NaCl, 0.01% v/v triton-X100, 5% DMSO, 100 uM GTP, 80 uM (2 ug) PI5P, 2 ug DOPE, and 5 nM PIP4KIIB Typically, the highest conc. of compounds was 4.8 uM and the lowest conc. was 0.
After 2 h, the reaction was quenched by adding 25 uL of transcreener FI reagent. The contents were incubated at RT for 1 h and the Fluorescence (Ex: 584 Em: 623) was read using Molecular Devices Paradigm plate reader. […] The blanks were averaged and subtracted from all other wells. Using a calibration curve, RFU was converted to uM GDP (product). IC50 was calculated by plotting the residual activity (expressed as % No inhibitor control) vs. log [Inh. conc.] Table 2 represents PI5P4K activity of compounds (Example No.) of the invention arranged in accordance with the inhibition of PIP4K2 A kinase assay.

IC50 [1] [nM] | IC50 (GST tagged PIP4KtypeIIB) [nM] | SMILES
5 to 100 | 100 to 1000 | Nc1ccc(-c2cnc3ncc(-c4cncc(-c5ccc(N6CCCC6=O)cc5)c4)cn23)cn1 [Example 337, 1-(4-(5-(3-(6-aminopyridin-3-yl)imidazo[1,2-a]pyrimidin-6-yl)pyridin-3-yl)phenyl)pyrrolidin-2-one]
< 5000 | > 5000 | Cc1cc(-c2cncc(-c3ccc(N4CCCC4=O)cc3)c2)n2cnnc2n1 [Example 336, 1-(4-(5-(7-methyl-[1,2,4]triazolo[4,3-a]pyrimidin-5-yl)pyridin-3-yl)phenyl)pyrrolidin-2-one]
1000 to 2500 | 1000 to 2500 | O=C1CCCN1c1ccc(-c2cncc(-c3cnc4ncc(-c5cncnc5)n4c3)c2)cc1 [Example 341, 1-(4-(5-(3-(pyrimidin-5-yl)imidazo[1,2-a]pyrimidin-6-yl)pyridin-3-yl)phenyl)pyrrolidin-2-one]
5 to 100 | 100 to 1000 | CC(=O)Nc1ncc(-c2cn(C)c3ncc(-c4cncc(-c5ccc(N6CCCC6=O)cc5)c4)cc23)cn1 [Example 350, N-(5-(1-methyl-5-(5-(4-(2-oxopyrrolidin-1-yl)phenyl)pyridin-3-yl)-1H-pyrrolo[2,3-b]pyridin-3-yl)pyrimidin-2-yl)acetamide]
100 to 1000 | 100 to 1000 | O=C1CCCN1c1ccc(-c2cncc(-c3cc(C4CC4)nc4nncn34)c2)cc1 [Example 333, 1-(4-(5-(7-cyclopropyl-[1,2,4]triazolo[4,3-a]pyrimidin-5-yl)pyridin-3-yl)phenyl)pyrrolidin-2-one]
1000 to 2500 | 100 to 1000 | Cc1c[nH]c2nccc(-c3cncc(-c4ccc(N5CCCC5=O)cc4)c3)c12 [Example 323, 1-(4-(5-(3-methyl-1H-pyrrolo[2,3-b]pyridin-4-yl)pyridin-3-yl)phenyl)pyrrolidin-2-one]

Further lines, the compound ahead of its results:

SMILES | IC50 [1] [nM] | IC50 (GST tagged PIP4KtypeIIB) [nM]
O=C(Nc1ccccn1)c1cc2c(-c3cncc(-c4ccc(N5CCCC5=O)cc4)c3)ccnc2[nH]1 [Example 312, 4-(5-(4-(2-oxopyrrolidin-1-yl)phenyl)pyridin-3-yl)-N-(pyridin-2-yl)-1H-pyrrolo[2,3-b]pyridine-2-carboxamide] | 1000 to 2500 | 10 to 100
CN(C)C(=O)c1ccc(-c2cc(-c3cnc4c(c3)c(-c3cccnc3)cn4C)cnc2N)nc1 [Example 121, 2′-amino-N,N-dimethyl-5′-(1-methyl-3-(pyridin-3-yl)-1H-pyrrolo[2,3-b]pyridin-5-yl)-[2,3′-bipyridine]-5-carboxamide] | 100 to 1000 | 100 to 1000
O=C(c1cc2c(-c3cncc(-c4ccc(N5CCCC5=O)cc4)c3)ccnc2[nH]1)N1CCCC2(CCCO2)C1 (centres unmarked) [Example 332, 1-(4-(5-(2-(1-oxa-7-azaspiro[4.5]decane-7-carbonyl)-1H-pyrrolo[2,3-b]pyridin-4-yl)pyridin-3-yl)phenyl)pyrrolidin-2-one] | 100 to 1000 | 100 to 1000
O=C(NCc1cccc2c1COB2O)c1cc2c(-c3cncc(-c4ccc(N5CCCC5=O)cc4)c3)ccnc2[nH]1 [Example 301, N-((1-hydroxy-1,3-dihydrobenzo[c][1,2]oxaborol-4-yl)methyl)-4-(5-(4-(2-oxopyrrolidin-1-yl)phenyl)pyridin-3-yl)-1H-pyrrolo[2,3-b]pyridine-2-carboxamide] | 5 to 100 | 10 to 100
CNC(=O)c1[nH]c2nccc(-c3cncc(-c4ccc(N5CCCC5=O)cc4)c3)c2c1C [Example 313, N,3-dimethyl-4-(5-(4-(2-oxopyrrolidin-1-yl)phenyl)pyridin-3-yl)-1H-pyrrolo[2,3-b]pyridine-2-carboxamide] | 1000 to 2500 | 100 to 1000
CC(C)c1cnnn1-c1ccc(-c2cncc(-c3ccnc4c3cc3n4CCN(c4ccccn4)C3=O)c2)cc1 [Example 357, 4-(5-(4-(5-isopropyl-1H-1,2,3-triazol-1-yl)phenyl)pyridin-3-yl)-7-(pyridin-2-yl)-8,9-dihydropyrido[3′,2′:4,5]pyrrolo[1,2-a]pyrazin-6(7H)-one] | 5 to 100 | 1 to 10
Cc1c[nH]c2nccc(-c3cnc(N)c(-c4ccc(N5CCCC5=O)cc4)c3)c12 [Example 309, 1-(4-(2-amino-5-(3-methyl-1H-pyrrolo[2,3-b]pyridin-4-yl)pyridin-3-yl)phenyl)pyrrolidin-2-one] | 100 to 1000 | 10 to 100
CN1CCn2c(cc3c(-c4cncc(-c5ccc(N6CCC(C)(C)CC6=O)cc5)c4)ccnc32)C1=O [Example 342, 4-(5-(4-(4,4-dimethyl-2-oxopiperidin-1-yl)phenyl)pyridin-3-yl)-7-methyl-8,9-dihydropyrido[3′,2′:4,5]pyrrolo[1,2-a]pyrazin-6(7H)-one] | 1000 to 2500 | 100 to 1000
CC(C)n1cnnc1-c1ccc(-c2cncc(-c3ccnc4[nH]c(C(=O)NCCOCCOCCOCCNC(=O)COc5cccc6c5C(=O)N(C5CCC(=O)NC5=O)C6=O)cc34)c2)cc1 (centres unmarked) [Example 389, N-(1-((2-(2,6-dioxopiperidin-3-yl)-1,3-dioxoisoindolin-4-yl)oxy)-2-oxo-6,9,12-trioxa-3-azatetradecan-14-yl)-4-(5-(4-(4-isopropyl-4H-1,2,4-triazol-3-yl)phenyl)pyridin-3-yl)-1H-pyrrolo[2,3-b]pyridine-2-carboxamide] | < 5000 | 100 to 1000
O=C(Nc1ccccc1)c1cc2c(-c3cncc(-c4ccc(N5CCCC5=O)cc4)c3)ccnc2[nH]1 [Example 329, 4-(5-(4-(2-oxopyrrolidin-1-yl)phenyl)pyridin-3-yl)-N-phenyl-1H-pyrrolo[2,3-b]pyridine-2-carboxamide] | 2500 to 5000 | 10 to 100

— patent US11919902B2, “Aryl-bipyridine amine derivatives as phosphatidylinositol phosphate kinase inhibitors” (HiberCell, Inc., priority 2017, dated 2024)
